Test results from ChEMBL document CHEMBL5523735 (J Med Chem, 2024).
pIC50: −log10 of the molar value. ≈ marks a conversion by molar mass, not a printed value. Calls of active or inactive are those of the source. The rule behind the calls is not given here.

Key:
[1] = target: T1, P2Y purinoceptor 14 (Homo sapiens, UniProt Q15391); assay: Antagonist activity at P2Y14R (unknown origin) stably expressed in HEK293 cells assessed as inhibition of forskolin-induced cAMP production by cAMP-Glo assay; type: functional, cell-based
T1 sequence (Q15391 whole entry): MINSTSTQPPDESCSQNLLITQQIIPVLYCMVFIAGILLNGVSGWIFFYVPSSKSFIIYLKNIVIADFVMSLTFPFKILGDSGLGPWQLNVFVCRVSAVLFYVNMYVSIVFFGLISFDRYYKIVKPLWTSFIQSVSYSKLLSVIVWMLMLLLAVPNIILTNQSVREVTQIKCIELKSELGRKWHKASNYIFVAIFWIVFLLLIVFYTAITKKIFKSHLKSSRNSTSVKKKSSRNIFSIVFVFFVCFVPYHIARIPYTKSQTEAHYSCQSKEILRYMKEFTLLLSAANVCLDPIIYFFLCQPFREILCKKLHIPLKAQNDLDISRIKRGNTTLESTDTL

[2] = Aqueous solubility of compound in SGF at pH 1.2 by spectrometry; type: ADME; settings: SGF, read-out: solubility
[3] = Aqueous solubility of compound in SIF at pH 6.8 by spectrometry; type: ADME; settings: simulated gi fluid
[4] = Aqueous solubility of compound in double distilled water at pH 7 by spectrometry; type: physicochemical; settings: buffer
[5] = Aqueous solubility of compound in PBS at pH 7.4 by spectrometry; type: physicochemical; settings: buffer
[6] = Metabolic stability in human liver microsomes measured for 90 mins; type: ADME, Microsome; settings: 1.5 h
[7] = Half life in Sprague-Dawley rat at 1 mg/kg, iv; type: ADME, organism-based; settings: in vivo
[8] = AUC (all) in Sprague-Dawley rat at 1 mg/kg, iv; type: ADME, organism-based; settings: in vivo
[9] = Cmax in Sprague-Dawley rat at 5 mg/kg, po; type: ADME, organism-based; settings: in vivo
[10] = Half life in Sprague-Dawley rat at 5 mg/kg, po; type: ADME, organism-based; settings: in vivo
[11] = Tmax in Sprague-Dawley rat at 5 mg/kg, po; type: ADME, organism-based; settings: in vivo
[12] = AUC (all) in Sprague-Dawley rat at 5 mg/kg, po; type: ADME, organism-based; settings: in vivo
[13] = Oral bioavailability in Sprague-Dawley rat at 5 mg/kg; type: ADME, organism-based; settings: in vivo
[14] = system: Mus musculus; assay: Anti-colitis activity in C57BL/6 mouse model of DSS-induced colitis assessed as increase in body weight at 100 uM, REC for 7 days administered daily; type: functional, organism-based; settings: time 7.0 day
[15] = system: Mus musculus; assay: Anti-colitis activity in C57BL/6 mouse model of DSS-induced colitis assessed as increase in colon length at 100 uM, REC for 7 days administered daily; type: functional, organism-based; settings: time 7.0 day
[16] = system: Mus musculus; assay: Anti-colitis activity in C57BL/6 mouse model of DSS-induced colitis assessed as decrease in spleen weight index at 100 uM, REC for 7 days administered daily; type: functional, organism-based; settings: time 7.0 day
[17] = system: Mus musculus; assay: Anti-colitis activity in C57BL/6 mouse model of DSS-induced colitis assessed as decrease in loose stools at 100 uM, REC for 7 days administered daily; type: functional, organism-based; settings: time 7.0 day
[18] = system: Mus musculus; assay: Anti-colitis activity in C57BL/6 mouse model of DSS-induced colitis assessed as decrease in rectal bleeding at 100 uM, REC for 7 days administered daily; type: functional, organism-based; settings: time 7.0 day
[19] = system: Mus musculus; assay: Anti-colitis activity in C57BL/6 mouse model of DSS-induced colitis assessed as decrease in endoscopic damage in colon at 100 uM, REC for 7 days administered daily; type: functional, organism-based; settings: time 7.0 day
[20] = system: Mus musculus; assay: Anti-colitis activity in C57BL/6 mouse model of DSS-induced colitis assessed as decrease in histological damage in colon at 100 uM, REC for 7 days administered daily by H and E staining based analysis; type: functional, organism-based; settings: time 7.0 day
[21] = system: Mus musculus; assay: Anti-colitis activity in C57BL/6 mouse model of DSS-induced colitis assessed as increase in intestinal epithelial cells in colon at 100 uM, REC for 7 days administered daily by H and E staining based analysis by immunofluorescence based analysis; type: functional, organism-based; settings: time 7.0 day
[22] = target: T2, P2Y purinoceptor 14 (Homo sapiens) (UniProt Q15391); settings: HEK293, filed as antagonist, dose 100.0 nM
T2 sequence (whole entry): T1 sequence (Q15391 whole entry)
Description: Antagonist activity at P2Y14R (unknown origin) stably expressed in HEK293 cells assessed as inhibition of forskolin-induced cAMP production at 100 nM by cAMP-Glo assay relative to control

pIC50 [1]: 9.40
solubility [2]: 0.051 µg/mL (≈ 0.137 µM)
solubility [3]: 0.175 µg/mL (≈ 0.47 µM)
solubility [4]: 0.088 µg/mL (≈ 0.236 µM)
solubility [5]: 1.995 µg/mL (≈ 5.36 µM)
Stability [6]: Stable
half-life [7]: 21 min
AUC [8]: 27924 ng·min/mL
Cmax [9]: 518 ng/mL
half-life [10]: 178 min
Tmax [11]: 15 min
AUC [12]: 90744 ng·min/mL
bioavailability [13]: 65%
inhibition [22]: 130%
Structure (SMILES): Cc1ccc(C(=O)Nc2cc(C(=O)O)sc2Oc2ccc(F)cn2)cc1
Activity [14]: Active
Activity [15]: Active
Activity [16]: Active
Activity [17]: Active
Activity [18]: Active
Activity [19]: Active
Activity [20]: Active
Activity [21]: Active
